US9399649B2, “Compounds for treating spinal muscular atrophy” (PTC Therapeutics Inc., priority 2012, dated 2016)

Experiments:
[1] = tested on: gems (Smn-dependent nuclear speckles); test: Gems count (Smn-dependent nuclear speckle count) assay; format: cell-based, human; conditions: SMA Type 1 patient cells, 48 hour, FIG. 9
Description: The level of Smn protein directly correlates with the amount of nuclear foci, also known as gems, produced upon staining the cell with a fluorescently labeled anti-Smn antibody (Liu and Dreyfuss, EMBO J., 1996, 15:3555). Gems are multi-protein complexes whose formation is nucleated by the Smn protein and the gems count assay is used to evaluate the level of Smn protein in the cell. As described herein, the gems count assay is used to quantify the level of Smn protein in SMA patient fibroblast cells treated with a test compound.
Cells are thawed and incubated in DMEM-10% FBS for 72 hours, then trypsinized, counted and resuspended to 100,000 cells/mL in DMEM-10% FBS. 2 mL of the cell suspension is plated in a 6-well cell culture plate with a sterile cover slip and incubated for 3 to 5 hours. Test compounds are serially diluted 3.16-fold in 100% DMSO to generate a 7-point dilution curve. […]
Cell culture medium is aspirated from the wells containing cover slips and gently washed three times with cold PBS. […] The number of gems is counted per ≧150 nuclei and % activation is calculated using DMSO and 10 nM bortezomib as controls. For each test compound, the cells are examined at all wavelengths to identify test compounds with inherent fluorescence.

[2] = tested on: Smn protein; test: Smn protein assay in tissues of adult C/C-allele SMA mice; format: in vivo; conditions: 10 mg/kg BID orally for 10 days, brain, spinal cord, muscle and liver, relative to vehicle group, FIG. 11
Experimental: This Smn protein assay compares tissues from test compound treated mice with those from DMSO vehicle treated mice to determine the increase in levels of Smn protein produced from the human SMN2 gene.
The tissue samples in Safe-Lock tubes are weighed and the volume of RIPA buffer containing the protease inhibitor cocktail is added based on the weight to volume ratios for each type of tissue: Brain (50 mgmL), Muscle (50 mgmL) and Spinal Cord (25 mgmL).
Tissues are homogenized using the TissueLyzer by bead milling. 5 mm stainless steel beads are added to the sample and shaken vigorously for 5 minutes at 30 Hz in the TissueLyzer. […] Fluorescence for each well of the plate at 665 nm and 620 nm is measured on an EnVision multilabel plate reader (Perkin-Elmer). The total protein in the tissue homogenate is measured using the BCA assay according to the manufacturer's protocol.
The normalized fluorescence signal is calculated for each sample, Blank and vehicle control well by dividing the signal at 665 nm by the signal at 620 nm. Normalizing the signal accounts for possible fluorescence quenching due to the matrix effect of the tissue homogenate. […] The ΔF value for each tissue sample well is divided by the total protein quantity (determined using the BCA assay) for that tissue sample. […]

[3] = tested on: Smn protein; test: Smn protein assay in human motor neurons; format: cell-based; conditions: human motor neurons derived from SMA iPS cells, 72 hours, increasing concentrations, FIG. 10
Experimental: Smn immunofluorescent confocal microscopy is used to quantify the level of Smn protein in human motor neurons treated with test compounds.
Human motor neurons derived from SMA iPS cells (Ebert et al., Nature, 2009, […]; and, Rubin et al., BMC Biology, 2011, 9:42) are treated with test compound at various concentrations for 72 hours. The level of Smn protein in the cell nucleus is quantified using Smn immunostaining and confocal fluorescence microscopy essentially as described in Makhortova et al., Nature Chemical Biology, 2011, 7:544. The level of Smn protein in compound-treated samples is normalized to that in vehicle-treated samples and plotted as a function of the compound concentration.

Row | Compound | gems (nuclear speckle) count relative to DMSO [1] | total protein normalized Smn level in tissues [2] | Smn protein in the nucleus [3]
1 | Cc1cn2cc(-c3cc4ccc(N5CCN(C)CC5)cc4c(=O)o3)nc2c(C)n1 [Cpd 65, 3-(6,8-dimethylimidazo[1,2-a]pyrazin-2-yl)-7-(4-methylpiperazin-1-yl)-1H-isochromen-1-one] | progressively more gems | increased in brain, spinal cord, muscle and liver tissues | progressively more Smn protein in the nucleus
2 | Cc1cn2cc(-c3cc4ccc(N5CCN6CCC[C@H]6C5)cc4c(=O)o3)nc2c(C)n1 [Cpd 69, 3-(6,8-dimethylimidazo[1,2-a]pyrazin-2-yl)-7-[(8aS)-hexahydropyrrolo[1,2-a]pyrazin-2(1H)-yl]-1H-isochromen-1-one] | progressively more gems | increased in brain, spinal cord, muscle and liver tissues | progressively more Smn protein in the nucleus
